We go through 23 compounds from article PMC8196580, “Identification of Kaurane-Type Diterpenes as Inhibitors of Leishmania Pteridine Reductase I” (Molecules, 2021).

The structures appear in SMILES notation. Read-outs that look alike come from different tables or passages of the source.

The test system of assay [1] is L. major. In words: ChEMBL dataset of pIC50 values against L. major used for the RF model (Table S1). Further: call rule not given here. In kind it is cell-based, Leishmania major.
Assay [2] deals with L. major. On the set-up: method as in ChEMBL. To be noted: ref ChEMBL, cited from earlier work.
Where [3] appears, read: Active/Inactive class assigned to ChemBL structures for Random forest model construction (Table S1).
[4] abbreviates: ChemBL structures with pIC50 values used for Random forest model construction (Table S1).

`O=C(/C=C/c1ccc(-n2ccnc2)cc1)c1ccc(Cl)cc1` [CHEMBL569356]: in the assay with L. major [1] (setting [3]), the Outcome entry is “Active”. The “pIC50 Value” with L. major [2] (setting [4]) is 5.53.
`O=C(/C=C/c1ccc(-n2ccnc2)cc1)c1ccc(F)c(F)c1` [CHEMBL569571]: the Outcome result in the assay on L. major [1] (setting [3]) was “Active”. In addition, the “pIC50 Value” with L. major [2] (setting [4]) is 5.54.
For `O=C(/C=C/c1ccc(-n2ccnc2)cc1)c1ccc(F)cc1` [CHEMBL570258], the Outcome result with L. major [1] (setting [3]) is reported as “Active”. In the assay with L. major [2] (setting [4]), the “pIC50 Value” is reported as 5.61.
Take `O=C(/C=C/c1ccc(-n2ccnc2)cc1)c1ccc(I)cc1` [CHEMBL570445]: the Outcome result in the assay on L. major [1] (setting [3]) was “Active”. Also, the “pIC50 Value” in the assay with L. major [2] (setting [4]) was 5.64.
`COc1ccc(C(=O)/C=C/c2ccc(-n3ccnc3)cc2)cc1` [CHEMBL570461]: the Outcome result with L. major [1] (setting [3]) is “Active”. Also, the “pIC50 Value” in the assay on L. major [2] (setting [4]) is on record as 5.49.
Take `COc1ccc(C(=O)/C=C/c2ccc(-n3ccnc3)cc2)cc1OC` [CHEMBL570484]: in the assay with L. major [1] (setting [3]), the Outcome entry is given as “Active”. Besides, the “pIC50 Value” in the assay with L. major [2] (setting [4]) is 5.61.
Regarding `O=C(/C=C/c1ccc(-n2ccnc2)cc1)c1ccc(Br)cc1` [CHEMBL570693], the Outcome result with L. major [1] (setting [3]) is given as “Active”. The “pIC50 Value” in the assay with L. major [2] (setting [4]) is given as 5.61.
`O=C(/C=C/c1ccc(-n2ccnc2)cc1)c1ccc(Cl)c(Cl)c1` [CHEMBL570738]: in the assay with L. major [1] (setting [3]), the Outcome result was “Active”. In addition, in the assay with L. major [2] (setting [4]), the “pIC50 Value” was 5.54.
`O=C(/C=C/c1ccc(-n2ccnc2)cc1)c1cc(Cl)ccc1Cl` [CHEMBL570739]: in the assay with L. major [1] (setting [3]), the Outcome entry is “Active”. For the same compound, the “pIC50 Value” in the assay with L. major [2] (setting [4]) is 5.54.
In the case of `O=C(/C=C/c1ccc(-n2ccnc2)cc1)c1ccc(Cl)cc1Cl` [CHEMBL570849], the Outcome entry in the assay on L. major [1] (setting [3]) is “Active”. Besides, the “pIC50 Value” with L. major [2] (setting [4]) is given as 5.68.
On to `O=C(/C=C/c1ccc(-n2ccnc2)cc1)c1cccc(F)c1F` [CHEMBL570959], for which the Outcome entry in the assay with L. major [1] (setting [3]) is given as “Active”. In addition, in the assay on L. major [2] (setting [4]), the “pIC50 Value” is on record as 5.57.
For the compound `O=C(/C=C/c1ccc(-n2ccnc2)cc1)c1c(F)cccc1F` [CHEMBL570962], the Outcome entry in the assay with L. major [1] (setting [3]) was “Active”. Besides, the “pIC50 Value” with L. major [2] (setting [4]) is recorded as 5.51.
Turning to `O=C(/C=C/c1ccc(-n2ccnc2)cc1)c1c(Cl)cccc1Cl` [CHEMBL571070], the Outcome result in the assay with L. major [1] (setting [3]) is listed as “Active”. Also, the “pIC50 Value” in the assay with L. major [2] (setting [4]) is listed as 5.71.
In the case of `O=C(/C=C/c1ccc(-n2ccnc2)cc1)c1ccccc1F` [CHEMBL571071], in the assay on L. major [1] (setting [3]), the Outcome result was “Active”. The “pIC50 Value” with L. major [2] (setting [4]) is 5.47.
Turning to `O=C(/C=C/c1ccc(-n2ccnc2)cc1)c1ccccc1` [CHEMBL571178], the Outcome entry in the assay on L. major [1] (setting [3]) was “Active”. In addition, the “pIC50 Value” in the assay with L. major [2] (setting [4]) is 5.48.
Regarding `O=C(/C=C/c1ccc(-n2ccnc2)cc1)c1cccc(O)c1` [CHEMBL571179], in the assay with L. major [1] (setting [3]), the Outcome result is “Active”. Also, in the assay on L. major [2] (setting [4]), the “pIC50 Value” is 5.48.
Consider `O=C(/C=C/c1ccc(-n2ccnc2)cc1)c1ccc(Cl)c(Cl)c1Cl` [CHEMBL571575], for which the Outcome result in the assay with L. major [1] (setting [3]) was “Active”. Further, the “pIC50 Value” in the assay with L. major [2] (setting [4]) is 5.78.
`CC[C@H](CO)Nc1nc(NCc2ccccc2O)c2ncn(C(C)C)c2n1` [CHEMBL1094304]: in the assay on L. major [1] (Active/Inactive class assigned to the ChEMBL pIC50 value for Random forest model construction, ref ChEMBL), the Outcome entry is “Inactive”. Besides, the “pIC50 Value” with L. major [2] (ChemBL structures with pIC50 values used for Random forest model construction, L. major) is on record as 4.33.
For the compound `COc1cc(C(=O)/C=C/C2=Cc3cc(Cl)ccc3OC2)cc(OC)c1OC` [CHEMBL1094315], the Outcome entry in the assay on L. major [1] (setting [3]) is on record as “Active”. Besides, the “pIC50 Value” with L. major [2] (setting [4]) is reported as 5.69.
Regarding `O=C(/C=C/c1ccccc1Br)C1=Cc2cc(Cl)ccc2OC1` [CHEMBL1094316], the Outcome result with L. major [1] (setting [3]) is “Active”. Further, the “pIC50 Value” in the assay with L. major [2] (setting [4]) was 5.88.
In the case of `Cc1ccc(/C=C/C(=O)C2=Cc3cc(Cl)ccc3OC2)cc1` [CHEMBL1094967], the Outcome result with L. major [1] (setting [3]) was “Active”. Moreover, the “pIC50 Value” in the assay on L. major [2] (setting [4]) is given as 5.56.
`COc1ccc(OC)c(/C=C/C(=O)C2=Cc3cc(Cl)ccc3OC2)c1` [CHEMBL1095286]: the Outcome result in the assay with L. major [1] (setting [3]) is “Active”. In addition, the “pIC50 Value” in the assay with L. major [2] (setting [4]) was 5.52.
For `COc1cccc(/C=C/C(=O)C2=Cc3cc(Cl)ccc3OC2)c1OC` [CHEMBL1095287], in the assay with L. major [1] (setting [3]), the Outcome result is recorded as “Active”. The “pIC50 Value” in the assay on L. major [2] (setting [4]) is recorded as 5.55.
